# Assay results: patent US8192962B2, “Processes for detecting toxic substances” (Daikin Industries, Ltd., priority 2001, dated 2012)
# Test system: Metabolism protein genes
# Assay: DNA chip mRNA expression in yeast, metabolism protein genes (Table 7)
# Format: cell-based, Saccharomyces cerevisiae S288C
# Method in brief: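 Measured as treated-to-untreated fluorescence ratio on a full-genome yeast DNA chip. Cells (S288C, YPD, 25° C.) were exposed in log phase for two hours to one chemical, dosed to curb growth without killing.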
compound,measurement,setting,value
"CN(C)C(=S)SSC(=S)N(C)C [(10), Tetramethylthiuram disulfide]",The level of expressed mRNA in the presence of chemical substance/The level of expressed mRNA in the absence of chemical substance,yeast gene YAL012W,3.9
same,The level of expressed mRNA in the presence of chemical substance/The level of expressed mRNA in the absence of chemical substance,yeast gene YAL038W,1.1
same,The level of expressed mRNA in the presence of chemical substance/The level of expressed mRNA in the absence of chemical substance,yeast gene YAL044C,0.6
same,The level of expressed mRNA in the presence of chemical substance/The level of expressed mRNA in the absence of chemical substance,yeast gene YAL054C,4.1
same,The level of expressed mRNA in the presence of chemical substance/The level of expressed mRNA in the absence of chemical substance,yeast gene YAR071W,0.3
same,The level of expressed mRNA in the presence of chemical substance/The level of expressed mRNA in the absence of chemical substance,yeast gene YBL001C,0.9
same,level of expressed mRNA in the presence/in the absence of chemical substance,yeast gene YBR003W,1.3
same,level of expressed mRNA in the presence/in the absence of chemical substance,yeast gene YBR011C,1.0
same,The level of expressed mRNA in the presence of chemical substance/The level of expressed mRNA in the absence of chemical substance,yeast gene YBR014C,0.8
same,level of expressed mRNA in the presence/in the absence of chemical substance,yeast gene YBR020W,1.1
same,The level of expressed mRNA in the presence of chemical substance/The level of expressed mRNA in the absence of chemical substance,yeast gene YBR023C,0.4
same,The level of expressed mRNA in the presence of chemical substance/The level of expressed mRNA in the absence of chemical substance,yeast gene YBR029C,1.1
same,The level of expressed mRNA in the presence of chemical substance/The level of expressed mRNA in the absence of chemical substance,yeast gene YBR035C,1.5
same,The level of expressed mRNA in the presence of chemical substance/The level of expressed mRNA in the absence of chemical substance,yeast gene YBR068C,2.5
same,The level of expressed mRNA in the presence of chemical substance/The level of expressed mRNA in the absence of chemical substance,yeast gene YBR111C,1.9
same,The level of expressed mRNA in the presence of chemical substance/The level of expressed mRNA in the absence of chemical substance,yeast gene YBR183W,2.0
same,The level of expressed mRNA in the presence of chemical substance/The level of expressed mRNA in the absence of chemical substance,yeast gene YBR222C,1.0
same,The level of expressed mRNA in the presence of chemical substance/The level of expressed mRNA in the absence of chemical substance,yeast gene YBR256C,6.8
same,The level of expressed mRNA in the presence of chemical substance/The level of expressed mRNA in the absence of chemical substance,yeast gene YBR296C,1.8
same,The level of expressed mRNA in the presence of chemical substance/The level of expressed mRNA in the absence of chemical substance,yeast gene YCL009C,1.6
same,The level of expressed mRNA in the presence of chemical substance/The level of expressed mRNA in the absence of chemical substance,yeast gene YCL064C,5.2
same,level of expressed mRNA in the presence/in the absence of chemical substance,yeast gene YCR010C,4.7
same,level of expressed mRNA in the presence/in the absence of chemical substance,yeast gene YCR034W,0.2
same,The level of expressed mRNA in the presence of chemical substance/The level of expressed mRNA in the absence of chemical substance,yeast gene YCR048W,0.5
same,The level of expressed mRNA in the presence of chemical substance/The level of expressed mRNA in the absence of chemical substance,yeast gene YCR098C,2.4
same,The level of expressed mRNA in the presence of chemical substance/The level of expressed mRNA in the absence of chemical substance,yeast gene YDR019C,0.7
same,level of expressed mRNA in the presence/in the absence of chemical substance,yeast gene YDR050C,1.3
same,level of expressed mRNA in the presence/in the absence of chemical substance,yeast gene YDR073W,1.2
same,level of expressed mRNA in the presence/in the absence of chemical substance,yeast gene YDR123C,0.6
same,level of expressed mRNA in the presence/in the absence of chemical substance,yeast gene YDR178W,0.8
same,level of expressed mRNA in the presence/in the absence of chemical substance,yeast gene YDR277C,0.9
same,level of expressed mRNA in the presence/in the absence of chemical substance,yeast gene YDR284C,1.0
same,level of expressed mRNA in the presence/in the absence of chemical substance,yeast gene YDR345C,1.1
same,The level of expressed mRNA in the presence of chemical substance/The level of expressed mRNA in the absence of chemical substance,yeast gene YDR380W,0.3
same,level of expressed mRNA in the presence/in the absence of chemical substance,yeast gene YDR400W,1.4
same,level of expressed mRNA in the presence/in the absence of chemical substance,yeast gene YDR408C,0.5
same,level of expressed mRNA in the presence/in the absence of chemical substance,yeast gene YDR483W,1.1
same,The level of expressed mRNA in the presence of chemical substance/The level of expressed mRNA in the absence of chemical substance,yeast gene YDR497C,0.8
same,The level of expressed mRNA in the presence of chemical substance/The level of expressed mRNA in the absence of chemical substance,yeast gene YDR502C,0.9
same,The level of expressed mRNA in the presence of chemical substance/The level of expressed mRNA in the absence of chemical substance,yeast gene YDR516C,5.2
same,level of expressed mRNA in the presence/in the absence of chemical substance,yeast gene YEL063C,1.7
same,level of expressed mRNA in the presence/in the absence of chemical substance,yeast gene YER015W,0.9
same,The level of expressed mRNA in the presence of chemical substance/The level of expressed mRNA in the absence of chemical substance,yeast gene YER026C,1.5
same,The level of expressed mRNA in the presence of chemical substance/The level of expressed mRNA in the absence of chemical substance,yeast gene YER053C,3.9
same,The level of expressed mRNA in the presence of chemical substance/The level of expressed mRNA in the absence of chemical substance,yeast gene YER069W,10.4
same,level of expressed mRNA in the presence/in the absence of chemical substance,yeast gene YER081W,1.1
same,The level of expressed mRNA in the presence of chemical substance/The level of expressed mRNA in the absence of chemical substance,yeast gene YER096W,3.5
same,level of expressed mRNA in the presence/in the absence of chemical substance,yeast gene YER120W,0.9
same,The level of expressed mRNA in the presence of chemical substance/The level of expressed mRNA in the absence of chemical substance,yeast gene YER178W,1.3
same,level of expressed mRNA in the presence/in the absence of chemical substance,yeast gene YFL011W,1.6
same,The level of expressed mRNA in the presence of chemical substance/The level of expressed mRNA in the absence of chemical substance,yeast gene YFL014W,5.8
same,The level of expressed mRNA in the presence of chemical substance/The level of expressed mRNA in the absence of chemical substance,yeast gene YFL030W,4.9
same,The level of expressed mRNA in the presence of chemical substance/The level of expressed mRNA in the absence of chemical substance,yeast gene YFL031W,0.7
same,The level of expressed mRNA in the presence of chemical substance/The level of expressed mRNA in the absence of chemical substance,yeast gene YFL056C,31.3
same,The level of expressed mRNA in the presence of chemical substance/The level of expressed mRNA in the absence of chemical substance,yeast gene YFL057C,46.1
same,The level of expressed mRNA in the presence of chemical substance/The level of expressed mRNA in the absence of chemical substance,yeast gene YFR047C,1.5
same,level of expressed mRNA in the presence/in the absence of chemical substance,yeast gene YGL012W,0.9
same,The level of expressed mRNA in the presence of chemical substance/The level of expressed mRNA in the absence of chemical substance,yeast gene YGL022W,0.4
same,level of expressed mRNA in the presence/in the absence of chemical substance,yeast gene YGL115W,1.2
same,The level of expressed mRNA in the presence of chemical substance/The level of expressed mRNA in the absence of chemical substance,yeast gene YGL126W,0.7
same,The level of expressed mRNA in the presence of chemical substance/The level of expressed mRNA in the absence of chemical substance,yeast gene YGL202W,1.7
same,level of expressed mRNA in the presence/in the absence of chemical substance,yeast gene YGL205W,0.6
same,The level of expressed mRNA in the presence of chemical substance/The level of expressed mRNA in the absence of chemical substance,yeast gene YGL209W,0.4
same,The level of expressed mRNA in the presence of chemical substance/The level of expressed mRNA in the absence of chemical substance,yeast gene YGL248W,2.9
same,The level of expressed mRNA in the presence of chemical substance/The level of expressed mRNA in the absence of chemical substance,yeast gene YGL252C,1.7
same,The level of expressed mRNA in the presence of chemical substance/The level of expressed mRNA in the absence of chemical substance,yeast gene YGR037C,1.4
same,The level of expressed mRNA in the presence of chemical substance/The level of expressed mRNA in the absence of chemical substance,yeast gene YGR055W,2.4
same,level of expressed mRNA in the presence/in the absence of chemical substance,yeast gene YGR096W,0.8
same,level of expressed mRNA in the presence/in the absence of chemical substance,yeast gene YGR191W,0.7
same,The level of expressed mRNA in the presence of chemical substance/The level of expressed mRNA in the absence of chemical substance,yeast gene YGR194C,2.1
same,level of expressed mRNA in the presence/in the absence of chemical substance,yeast gene YGR204W,2.3
same,The level of expressed mRNA in the presence of chemical substance/The level of expressed mRNA in the absence of chemical substance,yeast gene YGR256W,2.5
same,The level of expressed mRNA in the presence of chemical substance/The level of expressed mRNA in the absence of chemical substance,yeast gene YGR282C,0.8
same,level of expressed mRNA in the presence/in the absence of chemical substance,yeast gene YGR288W,2.6
same,level of expressed mRNA in the presence/in the absence of chemical substance,yeast gene YHR025W,0.4
same,The level of expressed mRNA in the presence of chemical substance/The level of expressed mRNA in the absence of chemical substance,yeast gene YHR111W,4.2
same,level of expressed mRNA in the presence/in the absence of chemical substance,yeast gene YHR123W,1.1
same,The level of expressed mRNA in the presence of chemical substance/The level of expressed mRNA in the absence of chemical substance,yeast gene YHR137W,0.9
same,The level of expressed mRNA in the presence of chemical substance/The level of expressed mRNA in the absence of chemical substance,yeast gene YHR174W,1.5
same,The level of expressed mRNA in the presence of chemical substance/The level of expressed mRNA in the absence of chemical substance,yeast gene YHR176W,6.4
same,level of expressed mRNA in the presence/in the absence of chemical substance,yeast gene YHR210C,0.9
same,level of expressed mRNA in the presence/in the absence of chemical substance,yeast gene YIL006W,1.1
same,The level of expressed mRNA in the presence of chemical substance/The level of expressed mRNA in the absence of chemical substance,yeast gene YIL045W,3.2
same,The level of expressed mRNA in the presence of chemical substance/The level of expressed mRNA in the absence of chemical substance,yeast gene YIL107C,3.5
same,The level of expressed mRNA in the presence of chemical substance/The level of expressed mRNA in the absence of chemical substance,yeast gene YIL154C,1.0
same,The level of expressed mRNA in the presence of chemical substance/The level of expressed mRNA in the absence of chemical substance,yeast gene YIL155C,2.9
same,The level of expressed mRNA in the presence of chemical substance/The level of expressed mRNA in the absence of chemical substance,yeast gene YIL167W,12.7
same,The level of expressed mRNA in the presence of chemical substance/The level of expressed mRNA in the absence of chemical substance,yeast gene YIL172C,7.1
same,The level of expressed mRNA in the presence of chemical substance/The level of expressed mRNA in the absence of chemical substance,yeast gene YIR034C,3.5
same,The level of expressed mRNA in the presence of chemical substance/The level of expressed mRNA in the absence of chemical substance,yeast gene YIR036C,1.9
same,The level of expressed mRNA in the presence of chemical substance/The level of expressed mRNA in the absence of chemical substance,yeast gene YJL031C,3.6
same,The level of expressed mRNA in the presence of chemical substance/The level of expressed mRNA in the absence of chemical substance,yeast gene YJL068C,3.1
same,The level of expressed mRNA in the presence of chemical substance/The level of expressed mRNA in the absence of chemical substance,yeast gene YJL088W,4.1
same,The level of expressed mRNA in the presence of chemical substance/The level of expressed mRNA in the absence of chemical substance,yeast gene YJL099W,3.1
same,level of expressed mRNA in the presence/in the absence of chemical substance,yeast gene YJL121C,0.4
same,level of expressed mRNA in the presence/in the absence of chemical substance,yeast gene YJL167W,0.9
same,The level of expressed mRNA in the presence of chemical substance/The level of expressed mRNA in the absence of chemical substance,yeast gene YJL172W,1.9
same,The level of expressed mRNA in the presence of chemical substance/The level of expressed mRNA in the absence of chemical substance,yeast gene YJL219W,2.3
same,level of expressed mRNA in the presence/in the absence of chemical substance,yeast gene YJR077C,0.7
same,The level of expressed mRNA in the presence of chemical substance/The level of expressed mRNA in the absence of chemical substance,yeast gene YJR137C,4.8
